We go through six compounds from article PMC5503626, “GLUT1-mediated selective tumor targeting with fluorine containing platinum(II) glycoconjugates” (Oncotarget, 2017).

In data set [1] the test system is DBA/2 mice. As to conditions: both mouse models (DBA/2 and BALB/c).
Method: The maximum tolerated dose is defined as the highest tolerated dose (mean weight loss < 15%) without causing major (life-threatening) toxicity (< 15% toxic deaths) in the study.
Three weeks-old male DBA/2 mice purchased from Beijing Vital River Laboratory Animal Technology Co. Ltd. were used for MTD study. Determination of MTD was performed as previously described [22]. […] Physiological observations (body weight and food consumption) were recorded. The maximum tolerated dose is defined as the highest tolerated dose (mean weight loss < 15%) and not cause major (life-threatening) toxicity (< 15% toxic deaths) during the study.
In data set [2] the test system is HT29 (human colon cancer cell line). As to conditions: read-out: IC50 (μM) HT29; MTS assay, 72 h, mean ± SD.
Method: The human colon cancer (HT29), breast cancer (MCF7), prostate cancer (DU145) and ovarian cancer (SK-OV-3) cell lines, were obtained from Central Institute of Pharmaceutical Research, CSPC Pharmaceutical Group, China. The human lung cancer cell lines H460 and A549 were purchased from the American Type Culture Collection (ATCC). […] MCF7 and SK-OV-3 were cultured in advanced Dulbecco's modified Eagle medium (DMEM), and other cell lines were cultured as adherent monolayer in RPMI-1640 supplemented with 1% (w/v) glutamine and 10% (v/v) fetal bovine serum (Gibco) at 37°C under a humidified atmosphere containing 5% CO2 and 95% air.
Cytotoxicity assays were carried out by the Celltiter 96 aqueous nonradioactive cell proliferation assay (Promega, Madison, WI). Cells were harvested by trypsinization and seeded in a 96-well flat-bottomed microplate in volumes of 100 μL at the following appropriate densities: 5.0 × 10^3 (A549), 8.0 × 10^3 (HT29), and 3.0 × 10^3 (H460), 5.0 × 10^3 (SKOV3), 8.0 × 10^3 (MCF7), 8.0 × 10^3 (DU145) cells per well. After being allowed to settle and resume exponential growth for 24 h, the cells were treated either with vehicle or with appropriate serial dilutions of the complexes. […] All the tested compounds were dissolved at room temperature prior to use and serially diluted in medium. Cells were incubated in a humidified atmosphere of 5% CO2 at 37°C for 72h. After incubation, 20 μL of MTS/PMS solution were added to each well and the mixtures were allowed to equilibrate for 2 h. The absorbance of MTS products was measured spectrophotometrically at 490 nm with microplate reader (VERSAmax, USA). The IC50 values of each test sample were calculated from nonlinear curve fits using dose-response equation in GraphPad Prism (La Jolla, CA). Experimental conditions were performed in five replicates and the calculated IC50 values are averages of three individual experiments.
The test system of data set [3] is H460 (human lung cancer cell line). Kind of data set: MTS cytotoxicity assay, H460. The data set is classed as cell-based. The note with it: 72 h, mean ± SD. As to the method:
(§1) The cisplatin stock solution was prepared in PBS.

Data set [4] concerns A549 (human lung carcinoma). Kind of data set: MTS cytotoxicity assay, A549. The format is cell-based. As to conditions: for IC50: MTS assay, 72 h, mean ± SD. How it is done:
as §1

Data set [5] relates to DU145 (human prostate cancer cell line). Kind of data set: MTS cytotoxicity assay, DU145. The data set is classed as cell-based. The note with it: 72 h, mean ± SD. How it is done:
as §1

Data set [6] deals with BALB/c nude mice. The note with it: previous study; cited from earlier work.
In data set [7] the test system is SKOV3 (human ovarian cancer cell line). Kind of data set: MTS cytotoxicity assay, SKOV3. The data set is classed as cell-based. As to conditions: for IC50: MTS assay, 72 h, mean ± SD. How it is done:
as §1

Data set [8] concerns HT29, empty vector transfected and shGLUT1-transfected cells. Kind of data set: Cellular platinum accumulation (ICP-MS). The format is cell-based, human. As to conditions: 200 μM, 2 h, DNA isolated. As to the method: The uptake values are depicted in Figure 5H.
HT29 cells were seeded in 10 cm dishes at densities of 6 × 10^6 cells/dish and kept at 37°C in a humidified 5% CO2 incubator. […] The cell suspensions were centrifuged at 2500 rpm for 10 min and remove the PBS. Vortex vigorously to resuspend cells. Nuclei lysis solution was added to lyse the cells. DNA was extracted with TIANamp Genomic DNA kit (TIANGEN). The extracted DNA was dissolved in concentrated nitric acid (0.05 mL) and diluted with 4.95 mL of deionized water (final concentration 1% v/v) for determining the platinum content. The platinum content taken up by the cells was determined by Agilent 7700X ICP-MS (Agilent Technologies, Tokyo, Japan). Calibrations were done using standard solutions containing 6.25, 12.5, 25, 50 and 100 ppb platinum.

Data set [9] deals with MCF7 (human breast cancer cell line). Kind of data set: MTS cytotoxicity assay, MCF7. The data set is classed as cell-based. The note with it: 72 h, mean ± SD. As to the method:
as §1

In data set [10] the test system is 5′-Guanosine Monophosphate (5′-GMP). Kind of data set: Reaction kinetics with 5′-GMP by 1H NMR. The note with it: 5 mM complex, 10 mM 5′-GMP, 5 mM NaCl, pH 7.2-7.4, 37°C. How it is done: A 5 mM solution of the sodium chloride was added to the mixture to simulate the intracellular environment.
Kinetic study of the substitution reactions between sugar conjugated platinum complexes with 5′-Guanosine Monophosphate was performed on Bruker Avance 400 MHz spectrometer by ^1H NMR analysis. Platinum complex (5 mM) and 5′-GMP (10 mM) were freshly prepared in deuterium oxide (D2O) at 37°C. A 5 mM solution of the NaCl in D2O was added to the mixture just before running the spectra. All samples were incubated at 37°C in a water bath to simulate physiological conditions and 1H NMR spectra were recorded at 295 K over a period of several days.

Data set [11] concerns DBA/2 mice. As to conditions: previous study; cited from earlier work.
For data set [12], the system named is HT29 tumor xenograft BALB/c nude mice model. How it is done:
Female BALB/c nude mice were inoculated by subcutaneous injection of HT29 human colon cancer cells (5 × 10^6). For the treatment groups, drug dosage was adjusted for average body weight for each group. Injection volume was 10 mL/kg. Each treatment group contains eight mice and control animals used ten mice and received injections of sterile saline. Treatments were initiated when the tumor reached a volume of 100-300 mm^3 in all mice. Animals received multiple treatments intravenously on days 0, 7, 14 and 21. […] Saline (5% v/v) was administered to the vehicle control group. Tumor volume was assessed regularly by measuring length (l) and width (w) with caliper and calculated using the formula V = lw^2/2. Body weight was recorded and used as a parameter of systemic toxicity. All mice were sacrificed on the 46th day of the experiment, and the tumor weight was measured.

For data set [13], the system named is L1210 leukemia bearing DBA/2 mice. As to conditions: 5a 11 mg/kg (18% MTD) vs oxaliplatin 7 mg/kg (70% MTD), i.p., days 1, 5, 9.
Method: The same male DBA/2 mice were used for in vivo efficacy study. Mice were kept in a pathogen-free environment under a condition of constant photoperiod. […] Six mice for treatment groups and ten mice for control group were used for this in vivo study. L1210 murine leukemia cells (1 × 10^6) were injected intraperitoneally into DBA/2 mice on day 0. […] Control group of ten mice each received injections of sterile saline. Animals were observed daily for clinical signs of toxicity and body weight was measured throughout the study.
In data set [14] the test system is cisplatin resistant HT29cisR human colon carcinoma cell line. Kind of data set: Cytotoxicity in cisplatin resistant cells. The format is cell-based. The note with it: read-out: IC50 against HT29cisR. How it is done:
as §1

Data set [15] relates to pUC18 plasmid DNA. Kind of data set: Plasmid unwinding assay (gel electrophoresis). The note with it: 12.5 to 100 μM, 37°C.
Method: To assess if the in vitro anti-proliferative activity of the sugar conjugates may be at the DNA adduct level, a plasmid unwinding assay was performed. The local untwisting of closed-circular supercoiled DNA induced by different types of platinum−DNA adducts can be determined by this assay [36]. […] On agarose gels, supercoiled plasmid DNA (form I) migrates faster in an electrical field than the nicked circle (form II).
After the incubation period, drug-DNA mixtures were loaded onto 0.8% agarose gel and electrophoresis was performed in Tris-acetate/EDTA buffer (TAE) for 1.5 h at 80 V. The gel was stained with GelRed^TM nucleic acid dye, visualized and photographed on the Bio-Rad Trans illuminator IEC 1010 (Bio-Rad, Hercules, CA).
Data set [16] deals with HT29 human colon cancer cell line. Kind of data set: GLUT1 inhibitor (quercetin) dependent cytotoxicity assay. The data set is classed as cell-based. As to conditions: 48 h. As to the method:
(E) RT-PCR analysis of GLUT1 mRNA expression in empty vector transfected and shGLUT1-transfected cells. NT: HT29 cells; mock: HT29 cells transfected by empty vector pLKO.1; shRNA1: HT29 cells transfected by shGLUT1-1 and selected by 1 μg/mL of puromycin; shRNA2: HT29 cells transfected by shGLUT1-2 and selected by 1 μg/mL of puromycin. […] HT29 exposed with PBS or quercetin alone were served as negative control. […] Data was calculated from three independent experiments. *P < 0.05, compared to the control group.
HT29 cells were grown in monolayer and were treated with and without quercetin, followed by exposure to 100 μM of platinum(II) complexes for 48 h. MTS assay was used to analyze the cell viability and the effects of GLUT1 inhibitor quercetin on cytotoxicity.

On to `O=C1[O][Pt]2([NH][C@@H]3CCCC[C@H]3[NH]2)[O]C(=O)C1(F)CCO[C@H]1O[C@H](CO)[C@@H](O)[C@H](O)[C@H]1O` (stereo partly drawn) [5a, (trans-R,R-cyclohexane-1,2-diamine)-2-fluoromalonatoplatinum(II)-α-D-glucose conjugate], for which, in data set [1], the “MTD higher than oxaliplatin” value is listed as around 5 fold. Also, the IC50 in [2] was found to be 0.53 ± 0.16 µM; in data set [3], 11.05 ± 0.11 µM; in data set [4] it was 0.35 ± 0.17 µM; in data set [5], 5.98 ± 0.16 µM; in [7], 16.7 ± 0.32 µM; in data set [9], 0.61 ± 0.13 µM. The “activity higher than oxaliplatin in A549” value in [4] (versus oxaliplatin) was 2 fold. Further, the MTD in data set [6] is listed as 36 mpk; in [11], 60 mpk. Further, the “platinum uptake (intracellular platinum accumulation)” value in data set [8] is “greater than that in HT29-shRNA1 and HT29-shRNA2 cells”. The “reaction with 5′-GMP compared to oxaliplatin” value in [10] was “faster reactions”. The tumor volume entry in data set [12] (25 mg/kg i.v., days 0, 7, 14, 21) is on record as “statistically significant tumor shrinkage”. Further, the “lifespan and survival rate” value in data set [13] is “overwhelming superiority in lifespan and survival rate”.
Consider `O=C1[O][Pt]2([NH][C@@H]3CCCC[C@H]3[NH]2)[O]C(=O)C1(F)CCO[C@H]1O[C@H](CO)[C@@H](O)[C@H](O)[C@@H]1O` (stereo partly drawn) [5b, (trans-R,R-cyclohexane-1,2-diamine)-2-fluoromalonatoplatinum(II)-α-D-mannose conjugate], for which the half-maximal inhibitory concentration (IC50) in data set [2] amounted to 2.16 ± 0.18 µM; in data set [3] it was 10.2 ± 0.15 µM; in data set [4], 0.65 ± 0.1 µM; in data set [5], 2.6 ± 0.18 µM; in data set [7] it was 2.22 ± 0.19 µM; in [9] it was 0.41 ± 0.09 µM. The “lower IC50 values than oxaliplatin in SK-OV-3” value in [7] (versus oxaliplatin) is “up to 70%”. In [10], the “reaction with 5′-GMP compared to oxaliplatin” value is given as “faster reactions”.
Take `O=C1[O][Pt]2([NH][C@@H]3CCCC[C@H]3[NH]2)[O]C(=O)C1(F)CCO[C@@H]1O[C@H](CO)[C@H](O)[C@H](O)[C@H]1O` (stereo partly drawn) [5c, (trans-R,R-cyclohexane-1,2-diamine)-2-fluoromalonatoplatinum(II)-β-D-galactose conjugate]: the IC50 in data set [2] is 1.07 ± 0.12 µM; in [3], 10 ± 0.15 µM; in data set [4], 4.9 ± 0.16 µM; in [5] it was 5.11 ± 0.14 µM; in [7], 22.05 ± 0.2 µM; in data set [9], 9.82 ± 0.12 µM. Moreover, the “reaction with 5′-GMP compared to oxaliplatin” value in [10] was “faster reactions”.
On to `N.N.[Cl][Pt][Cl]` [Cisplatin, cis-(NH3)2PtCl2], for which the half-maximal inhibitory concentration (IC50) in [14] was found to be 19.4 µM. The “mobility of supercoiled and singly-nicked plasmid DNA bands” value in [15] is “increased and showed concentration dependency”.
As for `O=C1[O][Pt]2([NH][C@@H]3CCCC[C@H]3[NH]2)[O]C1=O` [Oxaliplatin, reference compound], the concentration for half-maximal inhibition (IC50) in data set [2] is 5.05 ± 0.2 µM; in [3] it was 22.11 ± 0.17 µM; in data set [4], 0.86 ± 0.09 µM; in data set [5] it was 2.05 ± 0.16 µM; in [7], 8.54 ± 0.18 µM; in data set [9] it was 0.79 ± 0.11 µM. Also, the MTD in data set [6] was 7 mpk; in data set [11] it was 10 mpk. Also, in data set [15], the “mobility of supercoiled and singly-nicked plasmid DNA bands” value was “increased and showed concentration dependency”. For the same compound, the “dependency of cell-killing potency on quercetin” value in data set [16] (100 μM platinum complex, with or without quercetin (20 μM)) is reported as “did not exhibit quercetin dependent cytotoxicity”. For the same compound, the “body weight change versus vehicle group” value in data set [12] (5a 25 mg/kg, oxaliplatin 7 mg/kg, i.v. qw x 4) is “no significant difference”.
Turning to `O=c1c(O)c(-c2ccc(O)c(O)c2)oc2cc(O)cc(O)c12` [quercetin], in [16] (quercetin 20 μM alone), the “cytotoxic effect of quercetin alone” value is listed as “did not exert any cytotoxic effect”.
